Data published in US20250098679A1, “HERBICIDAL PYRIDONE DERIVATIVES” (SYNGENTA CROP PROTECTION AG, priority 2021, published 2025).

What was measured:
Assay type in all cases: in vivo
Conditions in all cases: evaluated after 13 days
[1] = system: Echinochloa crus-galli (ECHCG); test: Pre-emergence Test, Echinochloa crus-galli (ECHCG)
[2] = system: Ipomoea hederacea (IPOHE); test: Post-emergence Test, Ipomoea hederacea (IPOHE); design: key to percentage damage caused to the plant, IPOHE (five-point scale): 5=81-100%, 4=61-80%, 3=41-60%, 2=21-40%, 1=0-20% damage
How it was run: (§1)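 Tested at 1000 g/ha unless otherwise stated. Plants were held at 24/16 °C day/night with a 14 h light period. Percent damage was read at 13 days and reported in five bands.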

Zea mays (ZEAMX) [3] = test: Post-emergence Test, Zea mays (ZEAMX); design: key to percentage damage caused to the plant, ZEAMX (five-point scale): 5=81-100%, 4=61-80%, 3=41-60%, 2=21-40%, 1=0-20% damage
How it was run: as §1

[4] = system: Amaranthus palmeri (AMAPA); test: Post-emergence Test, Amaranthus palmeri (AMAPA); design: key: 5=81-100%, 4=61-80%, 3=41-60%, 2=21-40%, 1=0-20% damage
How it was run: as §1

Setaria faberi (SETFA) [5] = test: Post-emergence Test, Setaria faberi (SETFA); design: key to percentage damage caused to the plant, SETFA (five-point scale): 5=81-100%, 4=61-80%, 3=41-60%, 2=21-40%, 1=0-20% damage
How it was run: as §1

Setaria faberi (SETFA) [6] = test: Pre-emergence Test, Setaria faberi (SETFA)
[7] = system: Ipomoea hederacea (IPOHE); test: Pre-emergence Test, Ipomoea hederacea (IPOHE)
[8] = system: Amaranthus retoflexus (AMARE); test: Post-emergence Test, Amaranthus retoflexus (AMARE); design: key to percentage damage caused to the plant, AMARE (five-point scale): 5=81-100%, 4=61-80%, 3=41-60%, 2=21-40%, 1=0-20% damage
How it was run: as §1

[9] = system: Echinochloa crus-galli (ECHCG); test: Post-emergence Test, Echinochloa crus-galli (ECHCG); design: key to percentage damage caused to the plant, ECHCG (five-point scale): 5=81-100%, 4=61-80%, 3=41-60%, 2=21-40%, 1=0-20% damage
How it was run: as §1

[10] = system: Amaranthus palmeri (AMAPA); test: Pre-emergence Test, Amaranthus palmeri (AMAPA)
[11] = system: Amaranthus retoflexus (AMARE); test: Pre-emergence Test, Amaranthus retoflexus (AMARE)
Zea mays (ZEAMX) [12] = test: Pre-emergence Test, Zea mays (ZEAMX)

SMILES	Pre-emergence Test ECHCG, percentage damage caused to the plant (five-point scale) ([1]; 1000 g/ha)	percentage damage caused to the plant, IPOHE (five-point scale) ([2]; 250 g/Ha)	percentage damage caused to the plant, IPOHE (five-point scale) ([2]; 1000 g/ha)	percentage damage caused to the plant, ZEAMX (five-point scale) (Zea mays (ZEAMX) [3]; 250 g/Ha)	percentage damage caused to the plant, ZEAMX (five-point scale) (Zea mays (ZEAMX) [3]; 1000 g/ha)	percentage damage caused to the plant, AMAPA (five-point scale) ([4]; 250 g/Ha)	percentage damage caused to the plant, AMAPA (five-point scale) ([4]; 1000 g/ha)	percentage damage caused to the plant, SETFA (five-point scale) (Setaria faberi (SETFA) [5]; 250 g/Ha)	percentage damage caused to the plant, SETFA (five-point scale) (Setaria faberi (SETFA) [5]; 1000 g/ha)	Pre-emergence Test SETFA, percentage damage caused to the plant (five-point scale) (Setaria faberi (SETFA) [6]; 1000 g/ha)	Pre-emergence Test IPOHE, percentage damage caused to the plant (five-point scale) ([7]; 1000 g/ha)	percentage damage caused to the plant, AMARE (five-point scale) ([8]; 250 g/Ha)	percentage damage caused to the plant, AMARE (five-point scale) ([8]; 1000 g/ha)	percentage damage caused to the plant, ECHCG (five-point scale) ([9]; 250 g/Ha)	percentage damage caused to the plant, ECHCG (five-point scale) ([9]; 1000 g/ha)	Pre-emergence Test AMAPA, percentage damage caused to the plant (five-point scale) ([10]; 1000 g/ha)	Pre-emergence Test AMARE, percentage damage caused to the plant (five-point scale) ([11]; 1000 g/ha)	Pre-emergence Test ZEAMX, percentage damage caused to the plant (five-point scale) (Zea mays (ZEAMX) [12]; 1000 g/ha)	further results
CCn1c(Cn2nc(Cl)cc2C)cc(=O)c(C(=O)O)c1-c1ccc(Cl)c(Cl)c1 [Compound 15, 6-[(3-chloro-5-methyl-pyrazol-1-yl)methyl]-2-(3,4-dichlorophenyl)-1-ethyl-4-oxo-pyridine-3-carboxylic acid]	4 (4=61-80%)	3 (3=41-60%)	5 (5=81-100%)	2 (2=21-40%)	3 (3=41-60%)	5 (5=81-100%)	5 (5=81-100%)	3 (3=41-60%)	4 (4=61-80%)	4 (4=61-80%)	3 (3=41-60%)	5 (5=81-100%)	3 (3=41-60%)	4 (4=61-80%)	4 (4=61-80%)	5 (5=81-100%)	2 (2=21-40%)	2 (2=21-40%)	–
CCn1c(Cn2cncc2C(F)(F)F)cc(=O)c(C(=O)O)c1-c1ccc(Cl)c(Cl)c1 [Compound 16, 2-(3,4-dichlorophenyl)-1-ethyl-4-oxo-6-[[5-(trifluoromethyl)imidazol-1-yl]methyl]pyridine-3-carboxylic acid]	4 (4=61-80%)	2 (2=21-40%)	5 (5=81-100%)	0	4 (4=61-80%)	4 (4=61-80%)	5 (5=81-100%)	2 (2=21-40%)	5 (5=81-100%)	1 (1=0-20%)	0	4 (4=61-80%)	1 (1=0-20%)	2 (2=21-40%)	4 (4=61-80%)	5 (5=81-100%)	4 (4=61-80%)	0	Pre-emergence Test ECHCG, percentage damage caused to the plant (five-point scale) ([1]; 250 g/Ha (*)): 1 (1=0-20%); Pre-emergence Test SETFA, percentage damage caused to the plant (five-point scale) (Setaria faberi (SETFA) [6]; 250 g/Ha (*)): 0; Pre-emergence Test IPOHE, percentage damage caused to the plant (five-point scale) ([7]; 250 g/Ha (*)): 0; Pre-emergence Test AMAPA, percentage damage caused to the plant (five-point scale) ([10]; 250 g/Ha (*)): 3 (3=41-60%); Pre-emergence Test AMARE, percentage damage caused to the plant (five-point scale) ([11]; 250 g/Ha (*)): 1 (1=0-20%); Pre-emergence Test ZEAMX, percentage damage caused to the plant (five-point scale) (Zea mays (ZEAMX) [12]; 250 g/Ha (*)): 0
CCn1c(Cn2nc(C)cc2Cl)cc(=O)c(C(=O)O)c1-c1ccc(Cl)c(Cl)c1 [Compound 17, 6-[(5-chloro-3-methyl-pyrazol-1-yl)methyl]-2-(3,4-dichlorophenyl)-1-ethyl-4-oxo-pyridine-3-carboxylic acid]	4 (4=61-80%)	3 (3=41-60%)	5 (5=81-100%)	2 (2=21-40%)	3 (3=41-60%)	5 (5=81-100%)	5 (5=81-100%)	3 (3=41-60%)	4 (4=61-80%)	4 (4=61-80%)	3 (3=41-60%)	5 (5=81-100%)	3 (3=41-60%)	4 (4=61-80%)	4 (4=61-80%)	5 (5=81-100%)	2 (2=21-40%)	2 (2=21-40%)	–
CCn1c(Cn2ccc(C(F)(F)F)n2)c(Br)c(=O)c(C(=O)O)c1-c1ccc(Cl)c(Cl)c1 [Compound 18, 5-bromo-2-(3,4-dichlorophenyl)-1-ethyl-4-oxo-6-[[3-(trifluoromethyl)pyrazol-1-yl]methyl]pyridine-3-carboxylic acid]	1 (1=0-20%)	1 (1=0-20%)	1 (1=0-20%)	1 (1=0-20%)	2 (2=21-40%)	0	2 (2=21-40%)	1 (1=0-20%)	3 (3=41-60%)	2 (2=21-40%)	0	1 (1=0-20%)	1 (1=0-20%)	1 (1=0-20%)	3 (3=41-60%)	0	0	0	–
CCn1c(Cn2ccc(C(F)(F)F)n2)c(C)c(=O)c(C(=O)O)c1-c1ccc(Cl)c(Cl)c1 [Compound 20, 2-(3,4-dichlorophenyl)-1-ethyl-5-methyl-4-oxo-6-[[3-(trifluoromethyl)pyrazol-1-yl]methyl]pyridine-3-carboxylic acid]	4 (4=61-80%)	–	0	–	1 (1=0-20%)	–	0	–	4 (4=61-80%)	2 (2=21-40%)	0	–	1 (1=0-20%)	–	3 (3=41-60%)	0	0	1 (1=0-20%)	–
